pIC50: −log10 of the molar value. Read-outs that look alike come from different tables or passages of the source.
Target: T1, mTOR (Homo sapiens, UniProt P42345)
T1 construct: FLAG; made in house
Experiment: In Vitro mTOR Kinase Assay (Echo), Test (a)(ii)
Format: biochemical
Procedure, shortened: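 FLAG-tagged human mTOR truncation (residues 1362-2549) expressed in HEK293 cells and FLAG-purified. Compounds dispensed acoustically, reaction 2 h at room temperature, stopped with EDTA. Phosphorylation of biotinylated peptide detected by AlphaScreen with anti-p70 S6K (T389) antibody overnight; IC50 reported.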

[1] = table of enzyme assay Test (a)(ii), read-out: Test (a)(ii) IC50
[2] = read-out: mTOR Kinase Assay (Echo)

T1 sequence (P42345 1362-2549): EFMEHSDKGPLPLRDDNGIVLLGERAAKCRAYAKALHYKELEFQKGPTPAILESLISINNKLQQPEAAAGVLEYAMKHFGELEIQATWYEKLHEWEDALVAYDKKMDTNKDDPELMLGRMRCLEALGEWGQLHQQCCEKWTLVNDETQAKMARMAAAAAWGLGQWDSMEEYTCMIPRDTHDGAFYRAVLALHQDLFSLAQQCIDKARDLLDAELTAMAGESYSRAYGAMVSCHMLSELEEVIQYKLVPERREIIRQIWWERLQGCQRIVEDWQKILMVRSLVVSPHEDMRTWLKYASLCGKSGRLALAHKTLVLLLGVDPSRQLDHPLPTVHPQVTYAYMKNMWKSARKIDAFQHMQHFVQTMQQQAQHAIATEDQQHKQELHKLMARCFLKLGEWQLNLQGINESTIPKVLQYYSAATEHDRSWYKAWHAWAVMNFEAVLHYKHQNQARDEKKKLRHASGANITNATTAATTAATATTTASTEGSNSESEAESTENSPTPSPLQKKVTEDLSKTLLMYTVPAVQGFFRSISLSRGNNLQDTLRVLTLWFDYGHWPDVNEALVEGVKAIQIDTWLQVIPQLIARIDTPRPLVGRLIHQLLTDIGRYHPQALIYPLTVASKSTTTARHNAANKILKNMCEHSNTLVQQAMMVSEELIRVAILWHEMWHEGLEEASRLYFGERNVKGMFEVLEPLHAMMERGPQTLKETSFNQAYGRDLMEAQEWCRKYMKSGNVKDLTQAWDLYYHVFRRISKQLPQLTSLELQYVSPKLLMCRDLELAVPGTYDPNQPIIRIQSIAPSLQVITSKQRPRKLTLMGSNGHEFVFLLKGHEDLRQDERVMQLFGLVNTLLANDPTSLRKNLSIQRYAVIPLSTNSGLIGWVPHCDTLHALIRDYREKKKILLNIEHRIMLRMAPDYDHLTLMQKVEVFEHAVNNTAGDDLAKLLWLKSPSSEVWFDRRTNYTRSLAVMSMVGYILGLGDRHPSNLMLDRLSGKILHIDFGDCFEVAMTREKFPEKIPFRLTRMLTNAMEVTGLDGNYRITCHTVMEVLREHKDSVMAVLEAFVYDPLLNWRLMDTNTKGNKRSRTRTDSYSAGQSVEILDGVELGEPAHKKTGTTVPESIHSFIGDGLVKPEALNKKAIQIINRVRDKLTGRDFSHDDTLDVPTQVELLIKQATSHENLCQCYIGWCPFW

pIC50 [1]	pIC50 [2]	Structure (SMILES)
7.87	–	CNC(=O)Nc1ccc(-c2nc(N3CCOC[C@@H]3C)cc(C3(S(=O)(=O)C4CCOCC4)CC3)n2)cc1 [Example 94a, 3-methyl-1-[4-[4-[(3S)-3-methylmorpholin-4-yl]-6-[1-(oxan-4-ylsulfonyl)cyclopropyl]pyrimidin-2-yl]phenyl]urea]
8.38	–	C[C@H]1COCCN1c1cc(C2(S(=O)(=O)c3cc(F)cc(F)c3)CC2)nc(-c2ccc(NC(=O)NC(C)(C)CO)cc2)n1 [Example 19k, 1-[4-[4-[1-(3,5-difluorophenyl)sulfonylcyclopro-pyl]-6-[(3S)-3-methylmorpholin-4-yl]pyrimidin-2-yl]phenyl]-3-(1-hydroxy-2-methylpropan-2-yl)urea]
–	8.41	CS(=O)(=O)C1(c2cc(N3CCOCC3)nc(-c3ccc(NC(=O)NCCCO)cc3)n2)CC1 [Example 12h, 3-(3-hydroxypropyl)-1-[4-[4-(1-methylsulfonylcyclopropyl)-6-morpholin-4-ylpyrimidin-2-yl]phenyl]urea]
9.09	–	Cc1csc(S(=O)(=O)C2(c3cc(N4CCOC[C@@H]4C)nc(-c4ccc(NC(=O)Nc5ccccn5)cc4)n3)CC2)n1 [Example 25b, 1-[4-[4-[(3S)-3-methylmoprholin-4-yl]-6-[1-[(4-methyl-1,3-thiazol-2-yl)sulfonyl]cyclopropyl]pyrimidin-2-yl]phenyl]-3-pyridin-2-ylurea]
7.48	–	CCNC(=O)Nc1ccc(-c2nc(N3CCOC[C@@H]3C)cc(C3(S(=O)(=O)c4sc(C)nc4C)CC3)n2)cc1 [Example 78b, 3-[4-[4-[1-[(2,4-dimethyl-1,3-thiazol-5-yl)sulfonyl]cyclopropyl]-6-[(3S)-3-methylmorpholin-4-yl]pyrimidin-2-yl]phenyl]-1-ethylurea]
7.90	–	CNC(=O)Nc1ccc(-c2nc(N3CCOC[C@@H]3C)cc(C3(S(=O)(=O)C4CCOC4)CC3)n2)cc1 (stereo partly drawn) [Example 94g, 3-methyl-1-[4-[4-[(3S)-3-methylmorpholin-4-yl]-6-[1-(oxolan-3-ylsulfonyl)cyclopropyl]pyrimidin-2-yl]phenyl]urea]
8.79	–	Cc1csc(S(=O)(=O)C2(c3cc(N4CCOC[C@@H]4C)nc(-c4ccc(NC(=O)Nc5ncns5)cc4)n3)CC2)n1 [Example 36p, 1-[4-[4-[(3S)-3-methylmorpholin-4-yl]-6-[1-[(4-methyl-1,3-thiazol-2-yl)sulfonyl]cyclopropyl]pyrimidin-2-yl]phenyl]-3-(1,2,4-thiadiazol-5-yl)urea]
–	8.43	C[C@H]1COCCN1c1cc(C2(S(C)(=O)=O)CCCC2)nc(-c2ccc(NC(=O)Nc3ccccn3)cc2)n1 [Example 4l, 1-[4-[4-[(3S)-3-methylmorpholin-4-yl]-6-(1-methylsulfonylcyclopentyl)pyrimidin-2-yl]phenyl]-3-pyridin-2-yl-urea]
7.41	–	C[C@H]1COCCN1c1cc(C2(S(C)(=O)=O)CCC2)nc(-c2ccc(NC(=S)NCc3ncc[nH]3)cc2)n1 [Example 62a, 3-(1H-imidazol-2-ylmethyl)-1-[4-[4-[(3S)-3-methylmorpholin-4-yl]-6-(1-methylsulfonylcyclobutyl)pyrimi-din-2-yl]phenyl]thiourea]
7.53	–	Cc1csc(S(=O)(=O)C2(c3cc(N4CCOC[C@@H]4C)nc(-c4ccc(NC(=O)NCCC#N)cc4)n3)CCCC2)n1 [Example 36dm, 3-(2-cyanoethyl)-1-[4-[4-[(3S)-3-methylmorpholin-4-yl]-6-[1-[(4-methyl-1,3-thiazol-2-yl)sulfonyl]cyclopentyl]pyrimidin-2-yl]phenyl]urea]
8.28	–	CNC(=O)Nc1ccc(-c2nc(N3CCOC[C@@H]3C)cc(C3(S(=O)(=O)c4ccc(C#N)cc4)CC3)n2)cc1 [Example 77a, 1-[4-[4-[1-(4-cyanophenyl)sulfonylcyclopropyl]-6-[(3S)-3-methylmorpholin-4-yl]pyrimidin-2-yl]phenyl]-3-methylurea]
–	9.22	C[C@H]1COCCN1c1cc(C2(S(=O)(=O)C3CC3)CC2)nc(-c2ccc(NC(=O)Nc3ccn(C)n3)cc2)n1 [Example 3u, 1-[4-[4-(1-cyclopropylsulfonylcyclopropyl)-6-[(3S)-3-methylmorpholin-4-yl]pyrimidin-2-yl]phenyl]-3-(1-methylpyrazol-3-yl)urea]
7.37	–	C[C@H]1COCCN1c1cc(C2(S(=O)(=O)c3ccc(C#N)cc3Cl)CC2)nc(-c2ccc(NC(=O)NCC(F)F)cc2)n1 [Example 85h, 1-[4-[4-[1-(2-chloro-4-cyanophenyl)sulfonylcyclopropyl]-6-[(3S)-3-methylmorpholin-4-yl]pyrimidin-2-yl]phenyl]-3-(2,2-difluoroethyl)urea]
7.54	–	Cc1nc(C)c(S(=O)(=O)C2(c3cc(N4CCOC[C@@H]4C)nc(-c4ccc(NC(=O)Nc5cnn(C)c5)cc4)n3)CC2)s1 [Example 78f, 1-[4-[4-[1-[(2,4-dimethyl-1,3-thiazol-5-yl)sulfonyl]cyclopropyl]-6-[(3S)-3-methylmorpholin-4-yl]pyrimidin-2-yl]phenyl]-3-(1-methylpyrazol-4-yl)urea]
7.92	–	C[C@H]1COCCN1c1cc(C2(S(=O)(=O)C3CCOC3)CC2)nc(-c2ccc(NC(=O)NC3CC3)cc2)n1 (stereo partly drawn) [Example 94i, 3-cyclopropyl-1-[4-[4-[(3S)-3-methylmorpholin-4-yl]-6-[1-(oxolan-3-ylsulfonyl)cyclopropyl]pyrimidin-2-yl]phenyl]urea]
8.85	–	Cc1ccc(S(=O)(=O)C2(c3cc(N4CCOC[C@@H]4C)nc(-c4ccc(NC(=O)NC5CC5)cc4)n3)CCC2)cc1 [Example 68, 3-Cyclopropyl-1-[4-[4-[(3S)-3-methylmorpholin-4-yl]-6-[1-(4-methylphenyl)sulfonylcyclobutyl]pyrimidin-2-yl]phenyl]urea]
6.74	–	C[C@H]1COCCN1c1cc(C2(S(=O)(=O)c3ccc(F)cc3)CC2)nc(-c2ccc(NC(=O)NC3(CO)CC3)cc2)n1 [Example 36x, 1-[4-[4-[1-(4-fluorophenyl)sulfonylcyclopropyl]-6-[(3S)-3-methylmorpholin-4-yl]pyrimidin-2-yl]phenyl]-3-[1-(hydroxymethyl)cyclopropyl]urea]
–	7.70	CC(C)CNC(=O)Nc1ccc(-c2nc(N3CCOC[C@@H]3C)cc(C3(S(=O)(=O)c4ccc(F)cc4)CC3)n2)cc1 [Example 8i, 1-[4-[4-[1-(4-fluorophenyl)sulfonylcyclopropyl]-6-[(3S)-3-methylmorpholin-4-yl]pyrimidin-2-yl]phenyl]-3-(2-methylpropyl)urea]
8.67	–	Cc1csc(S(=O)(=O)C2(c3cc(N4CCOC[C@@H]4C)nc(-c4ccc(NC(=O)NCCF)cc4)n3)CC2)n1 [Example 64ae, 3-(2-fluoroethyl)-1-[4-[4-[(3S)-3-methylmorpholin-4-yl]-6-[1-[(4-methyl-1,3-thiazol-2-yl)sulfonyl]cyclopropyl]pyrimidin-2-yl]phenyl]urea]
8.88	–	Cc1nnc(S(=O)(=O)C2(c3cc(N4CCOC[C@@H]4C)nc(-c4ccc(NC(=O)NC5CC5)cc4)n3)CC2)s1 [Example 38, 3-Cyclopropyl-1-[4-[4-[(3S)-3-methylmorpholin-4-yl]-6-[1-[(5-methyl-1,3,4-thiadiazol-2-yl)sulfonyl]cyclopropyl]pyrimidin-2-yl]phenyl]urea]
6.46	7.22	CN(C)CCNC(=O)Nc1ccc(-c2nc(N3CCOCC3)cc(C3(S(C)(=O)=O)CC3)n2)cc1 [Example 12f, 3-(2-dimethylaminoethyl)-1-[4-[4-(1-methylsulfonylcyclopropyl)-6-morpholin-4-ylpyrimidin-2-yl]phenyl]urea]
7.53	–	C[C@H]1COCCN1c1cc(C2(S(C)(=O)=O)CC2)nc(-c2ccc(NC(=O)NCCO)c(F)c2)n1 [Example 52c, 1-[2-fluoro-4-[4-[(3S)-3-methylmorpholin-4-yl]-6-(1-methylsulfonylcyclopropyl)pyrimidin-2-yl]phenyl]-3-(2-hydroxyethyl)urea]
8.25	–	C[C@H]1COCCN1c1cc(C2(S(=O)(=O)c3cnn(C(F)F)c3)CC2)nc(-c2ccc(NC(=O)NCCO)cc2)n1 [Example 64al, 1-[4-[4-[1-[1-(difluoromethyl)pyrazol-4-yl]sulfonylcyclopropyl]-6-[(3S)-3-methylmorpholin-4-yl]pyrimidin-2-yl]phenyl]-3-(2-hydroxyethyl)urea]
7.84	–	CCNC(=O)Nc1ccc(-c2nc(N3CCOC[C@@H]3C)cc(C3(S(=O)(=O)c4nc(C)c(C)s4)CC3)n2)cc1 [Example 80e, 3-[4-[4-[1-[(4,5-dimethyl-1,3-thiazol-2-yl)sulfonyl]cyclopropyl]-6-[(3S)-3-methylmorpholin-4-yl]pyrimidin-2-yl]phenyl]-1-ethylurea]
7.84	–	C[C@H]1COCCN1c1cc(C2(S(=O)(=O)c3ccccc3)CCCC2)nc(-c2ccc(NC(=O)NCCC#N)cc2)n1 [Example 36bz, 1-[4-[4-[1-(benzenesulfonyl)cyclopentyl]-6-[(3S)-3-methylmorpholin-4-yl]pyrimidin-2-yl]phenyl]-3-(2-cyanoethyl)urea]
8.34	–	Cc1ccccc1S(=O)(=O)C1(c2cc(N3CCOC[C@@H]3C)nc(-c3ccc(NC(=O)NCCF)cc3)n2)CC1 [Example 54c, 3-(2-fluoroethyl)-1-[4-[4-[(3S)-3-methylmorpholin-4-yl]-6-[1-(2-methylphenyl)sulfonylcyclo-propyl]pyrimidin-2-yl]phenyl]urea]
8.65	–	Cc1csc(S(=O)(=O)C2(c3cc(N4CCOC[C@@H]4C)nc(-c4ccc(NC(=O)NC5CCC5)cc4)n3)CC2)n1 [Example 25a, 3-cyclobutyl-1-[4-[4-[(3S)-3-methylmorpholin-4-yl]-6-[1-[(4-methyl-1,3-thiazol-2-yl)sulfonyl]cyclopropyl]pyrimidin-2-yl]phenyl]urea]
6.53	–	C[C@H]1COCCN1c1cc(C2(S(=O)(=O)c3ccccc3)CC2)nc(-c2ccc(NC(=O)N(C)C3CC3)cc2)n1 [Example 36dr, 3-[4-[4-[1-(benzenesulfonyl)cyclopropyl]-6-[(3S)-3-methylmorpholin-4-yl]pyrimidin-2-yl]phenyl]-1-cyclopropyl-1-methylurea]
